Data published in US20100305140A1, “BENZIMIDAZOLE DERIVATIVES WHICH ARE TO BE USED AS ANTAGONIST FOR THE CB1-RECEPTOR” (AstraZeneca AB, priority 2006, published 2010).

Key:
[1] = molecular target: T1, Human CB1 receptor (hCB1) (Homo sapiens, UniProt P21554); assay: hCB1 GTPγS binding; format: biochemical; details: human CB1 receptor membranes, GTPγ35S; for EC50: unit inferred; for Emax: maximal stimulated binding determined with 10 μM Win 55,212-2
T1 construct: purchased Receptor Biology
Protocol: hCB1 and hCB2 GTPγS Binding
Human CB1 receptor from Receptor Biology (hCB1) or human CB2 receptor membranes (BioSignal) are thawed at 37° C., passed 3 times through a 25-gauge blunt-end needle and diluted in the GTPγS binding buffer (50 mM Hepes, 20 mM NaOH, 100 mM NaCl, 1 mM EDTA, 5 mM MgCl2, pH 7.4, 0.1% BSA). The EC50 and Emax of the compounds of the invention are evaluated from 10-point dose-response curves done in 300 μl with the appropriate amount of membrane protein and 100000-130000 dpm of GTPg^35S per well (0.11-0.14 nM). The basal and maximal stimulated binding is determined in absence and presence of 1 μM (hCB2) or 10 μM (hCB1) Win 55,212-2 respectively. The membranes are pre-incubated for 5 minutes with 56.25 μM (hCB2) or 112.5 μM (hCB1) GDP prior to distribution in plates (15 μM (hCB2) or 30 μM (hCB1) GDP final). The plates are vortexed and incubated for 60 minutes at room temperature, filtered on Unifilters GF/B (presoaked in water) with the Tomtec or Packard harvester using 3 ml of wash buffer (50 mM Tris, 5 mM MgCl2, 50 mM NaCl, pH 7.0). The filters are dried for 1 hour at 55° C. The radioactivity (cpm) is counted in a TopCount (Packard) after adding 65 μl/well of MS-20 scintillation liquid. Antagonist reversal studies are done in the same way except that (a) an agonist dose-response curve is done in the presence of a constant concentration of antagonist, or (b) an antagonist dose-response curve is done in the presence of a constant concentration of agonist.

[2] = molecular target: T1, Human CB1 receptor (hCB1); assay: hCB1 receptor binding (3H-CP55,940 displacement); details: human CB1 receptor membranes
Protocol: hCB1 and hCB2 Receptor Binding
Human CB1 receptor from Receptor Biology (hCB1) or human CB2 receptor from BioSignal (hCB2) membranes are thawed at 37° C., passed 3 times through a 25-gauge blunt-end needle, diluted in the cannabinoid binding buffer (50 mM Tris, 2.5 mM EDTA, 5 mM MgCl2, and 0.5 mg/mL BSA fatty acid free, pH 7.4) and aliquots containing the appropriate amount of protein are distributed into 96-well plates. The IC50 of the compounds of the invention at hCB1 and hCB2 are evaluated from 10-point dose-response curves done with ^3H-CP55,940 at 20000 to 25000 dpm per well (0.17-0.21 nM) in a final volume of 300 μl. The total and non-specific binding are determined in the absence and presence of 0.2 μM of HU210 respectively. The plates are vortexed and incubated for 60 minutes at room temperature, filtered through Unifilters GF/B (presoaked in 0.1% polyethyleneimine) with the Tomtec or Packard harvester using 3 mL of wash buffer (50 mM Tris, 5 mM MgCl2, 0.5 mg BSA pH 7.0). The filters are dried for 1 hour at 55° C. The radioactivity (cpm) is counted in a TopCount (Packard) after adding 65 μl/well of MS-20 scintillation liquid.
Based on the above assays, the dissociation constant (Ki) for a particular compound of the invention towards a particular receptor is determined using the following equation: […]

T1 sequence (P21554 whole entry): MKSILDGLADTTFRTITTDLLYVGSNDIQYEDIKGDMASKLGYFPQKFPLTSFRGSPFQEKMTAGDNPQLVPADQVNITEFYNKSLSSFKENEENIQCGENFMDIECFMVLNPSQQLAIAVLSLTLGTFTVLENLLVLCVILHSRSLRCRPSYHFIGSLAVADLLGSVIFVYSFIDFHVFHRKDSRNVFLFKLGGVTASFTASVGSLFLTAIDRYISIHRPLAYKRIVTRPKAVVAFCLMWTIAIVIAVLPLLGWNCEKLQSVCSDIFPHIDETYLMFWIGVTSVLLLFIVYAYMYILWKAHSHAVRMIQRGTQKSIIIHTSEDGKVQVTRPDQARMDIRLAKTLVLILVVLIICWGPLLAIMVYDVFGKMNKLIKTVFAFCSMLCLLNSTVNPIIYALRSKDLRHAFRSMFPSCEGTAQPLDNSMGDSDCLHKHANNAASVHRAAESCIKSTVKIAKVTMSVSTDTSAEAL

| Structure (SMILES) | EC50 [1] | Emax [1] | Ki [2] |
| --- | --- | --- | --- |
| CC(C)(C)c1nc2cc(C(=O)N3CCC(C(=O)NC4CC4)CC3)ccc2n1CC1CCC(F)(F)CC1 | 16.7 nM | 115% | 19.2 nM |
| CC(C)(C)c1nc2cc(C(=O)N3CCC(C(=O)NC4CC4)CC3)ccc2n1CC1CCCCC1 | 37.7 nM | 134% | 23.8 nM |
| Cc1cc(NC(=O)C2CCN(C(=O)c3ccc4c(c3)nc(C(C)(C)C)n4CC3CCC(F)(F)CC3)CC2)no1 | 1770 nM | 132% |  |
